Settings: 23.0 °C

| log10 OH rate constant (cm³/molecule/s) | Structure (SMILES) |
| --- | --- |
| -12.8 | c1ncncn1 |
| -12.5 | COC(C)=O |

Same assay, conditions: 24.0 °C

| log10 OH rate constant (cm³/molecule/s) | Structure (SMILES) |
| --- | --- |
| -11.9 | c1cscn1 |

Same assay, conditions: 25.0 °C

| Structure (SMILES) | log10 OH rate constant (cm³/molecule/s) |
| --- | --- |
| CN(C)N=O | -11.6 |
| CBr | -13.4 |
| Cc1ccoc1 | -10 |
| C=C(CCl)CCl | -10.5 |
| FC(F)C(F)(F)F | -14.6 |
| C1=CC2C=CC1C2 | -9.92 |
| Clc1ccccc1Cl | -12.4 |
| OCc1ccccc1 | -10.6 |
| N#Cc1ccccc1 | -12.5 |
| CCCCCCCCCCCCCCCC | -10.6 |
| c1cc[nH]c1 | -9.96 |
| O=[N+]([O-])c1ccc2ccccc2c1 | -11.3 |
| CC1CCCCC1 | -11 |
| FCF | -14 |
| Cc1ccccc1 | -11.2 |
| CCCc1ccccc1 | -11.2 |
| C1=CC2CCC1C2 | -10.3 |
| CCOC=O | -12 |
| CCCCC=O | -10.5 |
| C1CCCOCC1 | -10.8 |

| Structure (SMILES) | log10 OH rate constant (cm³/molecule/s) |
| --- | --- |
| C1C2CC3CC1CC(C2)C3 | -10.6 |
| C1CCCCCCC1 | -10.9 |
| C#CC#C | -10.7 |
| C1=CCCCC1 | -10.2 |
| CC(=O)c1ccccc1 | -11.6 |
| FC(F)(F)CCl | -13.8 |
| CCCCCCCC | -11.1 |
| C=C=CCC | -10.4 |
| Ic1ccccc1 | -12 |
| C=CCCl | -10.8 |
| Sc1ccccc1 | -11 |
| CCC=C=O | -9.93 |
| c1ccoc1 | -10.4 |
| C=C=CC | -10.6 |
| Cc1ccc(O)cc1 | -10.3 |
| ClCCl | -12.8 |
| O=C1CCC1 | -12.1 |
| C=C=O | -10.8 |
| C#C | -12.1 |
| C=CC(C)=O | -10.7 |

| Structure (SMILES) | log10 OH rate constant (cm³/molecule/s) |
| --- | --- |
| C#CCC | -11.1 |
| FC(F)=C(Cl)Cl | -11.1 |
| CN(C)CCO | -10 |
| FC(Cl)Cl | -13.5 |
| ClC(Cl)(Cl)Cl | < -15.9 |
| FC(F)(Cl)Br | < -15 |
| C1OCOCO1 | -11.2 |
| FCCl | -13.4 |
| Cc1ccc(C)c(C)c1 | -10.5 |
| CC=C=O | -10.2 |
| C=CBr | -11.2 |
| CC1CO1 (stereo not given) | -12.3 |
| Brc1ccccc1 | -12.1 |
| C=CC(=C)C | -10 |
| C=C/C=C\C | -9.99 |
| O=C1CCCCC1 | -11.2 |
| C=CCCC=C | -10.2 |
| C1CC2CCC1CC2 | -10.8 |

The next lines start with the values.

| log10 OH rate constant (cm³/molecule/s) | Structure (SMILES) |
| --- | --- |
| -10.9 | CCCCCCCCC(C)=O |
| -11.9 | CC(=O)CC(C)=O |
| -11 | CCCCC(C)=O |
| -12.6 | CC |
| -9.97 | CC(C)=C=O |
| -10.7 | COCCC(OC)OC |
| -13 | OCC(F)(F)F |
| -10.3 | CCC(C)CS (stereo not given) |
| -10.9 | CCOC(C)(C)OCC |
| -11 | CCCCCCC(C)C |
| -10 | CCN(O)CC |
| -9.92 | C=C(C)CCC(=C)C |
| -12 | CC(C)(C)O |
| -11.5 | CCO |
| -11.2 | C#CC |
| -12.6 | CC(=O)C(C)=O |
| -9.87 | C=C(C)C=CC |
| -11.3 | CCC(C)OC(C)=O (stereo not given) |
| -12 | CCC(=O)OC |

| log10 OH rate constant (cm³/molecule/s) | Structure (SMILES) |
| --- | --- |
| -10.2 | Cc1cccc(O)c1 |
| -11.4 | CC(C)C(C)(C)C |
| -11.1 | CC(C)CC(C)C(C)C (stereo not given) |
| -10.6 | CC(C)C=O |
| -12.1 | CC(=O)O |
| -11.5 | CCCOC(C)=O |
| -9.87 | C=CC(C)=CC |
| -10.7 | CCCSCCC |
| -11.3 | CCCCC(C)(C)C |
| -9.96 | CC(C)=C(C)C |
| -11.1 | COC(C)OC |
| -11.3 | CC(=O)OCC(C)C |
| -12 | CC(C)(C)C(C)(C)C |
| -13.8 | CF |
| -10.5 | CC(C)(C)S |
| -10.9 | CCCC(C)O (stereo not given) |
| -10.4 | CCC(C)S (stereo not given) |
| -9.9 | CC1=CC[C@@H](C(C)C)CC1 |
| -9.68 | CC(C)=CC=C(C)C |

Same assay, conditions: 27.0 °C

| Structure (SMILES) | log10 OH rate constant (cm³/molecule/s) |
| --- | --- |
| CCN | -10.6 |
